{"source": "ChEMBL document CHEMBL5385977", "about": "“Small molecules modulating RNA splicing: a review of targets and future perspectives” (RSC Med Chem, 2024)", "key": {"[1]": {"molecular_target": "Vascular endothelial growth factor receptor 2 (Homo sapiens, UniProt P35968)", "sequence (P35968 whole entry)": "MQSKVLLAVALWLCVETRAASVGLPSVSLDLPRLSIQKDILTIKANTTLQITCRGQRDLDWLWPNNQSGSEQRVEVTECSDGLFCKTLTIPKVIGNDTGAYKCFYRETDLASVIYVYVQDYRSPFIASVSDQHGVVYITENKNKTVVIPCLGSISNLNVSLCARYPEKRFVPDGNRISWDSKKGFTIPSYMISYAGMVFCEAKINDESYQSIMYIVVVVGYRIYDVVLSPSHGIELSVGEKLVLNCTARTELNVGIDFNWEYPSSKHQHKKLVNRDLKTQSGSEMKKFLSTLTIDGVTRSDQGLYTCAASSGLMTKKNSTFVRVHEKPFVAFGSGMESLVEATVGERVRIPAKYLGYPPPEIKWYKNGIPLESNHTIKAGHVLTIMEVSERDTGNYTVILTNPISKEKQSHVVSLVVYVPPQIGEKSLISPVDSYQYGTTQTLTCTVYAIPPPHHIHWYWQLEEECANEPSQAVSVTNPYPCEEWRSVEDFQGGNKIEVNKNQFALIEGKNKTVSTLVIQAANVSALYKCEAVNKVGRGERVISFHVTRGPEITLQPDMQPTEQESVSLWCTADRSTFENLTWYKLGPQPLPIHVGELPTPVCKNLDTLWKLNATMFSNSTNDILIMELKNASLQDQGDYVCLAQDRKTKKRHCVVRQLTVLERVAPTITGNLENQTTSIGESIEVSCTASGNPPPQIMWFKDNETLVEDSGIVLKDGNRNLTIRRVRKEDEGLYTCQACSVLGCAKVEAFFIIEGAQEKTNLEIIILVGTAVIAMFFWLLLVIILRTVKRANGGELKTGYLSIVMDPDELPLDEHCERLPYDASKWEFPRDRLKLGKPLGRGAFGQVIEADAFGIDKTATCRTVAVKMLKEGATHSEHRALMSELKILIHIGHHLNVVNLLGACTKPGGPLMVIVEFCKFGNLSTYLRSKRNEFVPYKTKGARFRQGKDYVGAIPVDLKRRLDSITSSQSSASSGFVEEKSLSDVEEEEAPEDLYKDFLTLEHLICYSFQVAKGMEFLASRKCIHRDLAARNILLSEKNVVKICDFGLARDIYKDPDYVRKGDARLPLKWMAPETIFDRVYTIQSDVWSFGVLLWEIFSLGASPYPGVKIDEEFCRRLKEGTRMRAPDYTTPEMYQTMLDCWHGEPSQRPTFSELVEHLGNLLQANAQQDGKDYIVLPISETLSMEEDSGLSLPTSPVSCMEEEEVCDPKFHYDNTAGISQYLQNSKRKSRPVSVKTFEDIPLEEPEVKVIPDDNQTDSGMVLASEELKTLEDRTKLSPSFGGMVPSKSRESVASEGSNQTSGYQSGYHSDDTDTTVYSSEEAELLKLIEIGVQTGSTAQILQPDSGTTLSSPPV", "experiment": "Inhibition of human VEGFR2 (unknown origin) incubated for 1 hrs in presence of ATP by ELISA assay"}, "[2]": {"molecular_target": "Programmed cell death protein 1/Programmed cell death 1 ligand 1 (Homo sapiens, UniProt Q15116+Q9NZQ7)", "sequence (Q15116 whole entry)": "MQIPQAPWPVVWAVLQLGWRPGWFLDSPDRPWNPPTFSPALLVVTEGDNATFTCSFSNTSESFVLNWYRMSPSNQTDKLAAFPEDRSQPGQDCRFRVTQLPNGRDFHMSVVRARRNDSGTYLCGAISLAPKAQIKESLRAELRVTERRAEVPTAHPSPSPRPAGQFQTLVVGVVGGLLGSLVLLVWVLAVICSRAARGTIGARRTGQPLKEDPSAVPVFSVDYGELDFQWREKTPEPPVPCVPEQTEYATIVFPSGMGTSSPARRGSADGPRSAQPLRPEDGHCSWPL", "sequence (Q9NZQ7 whole entry)": "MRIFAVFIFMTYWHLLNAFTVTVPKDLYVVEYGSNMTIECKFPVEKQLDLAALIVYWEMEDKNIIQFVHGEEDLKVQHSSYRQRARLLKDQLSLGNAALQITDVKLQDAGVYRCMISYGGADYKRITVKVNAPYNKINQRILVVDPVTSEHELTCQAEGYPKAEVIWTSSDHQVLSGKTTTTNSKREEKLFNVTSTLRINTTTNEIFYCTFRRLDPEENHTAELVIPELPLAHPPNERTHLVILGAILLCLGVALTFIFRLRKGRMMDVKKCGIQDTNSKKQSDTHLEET", "experiment": "Inhibition of PD-1/PD-L1 interaction (unknown origin) incubated for 24 hrs by HTRF assay", "type": "protein-complex assay"}, "Splicing factor 45": {"molecular_target": "T1, Splicing factor 45 (Homo sapiens, UniProt Q96I25)", "T1 sequence (Q96I25 whole entry)": "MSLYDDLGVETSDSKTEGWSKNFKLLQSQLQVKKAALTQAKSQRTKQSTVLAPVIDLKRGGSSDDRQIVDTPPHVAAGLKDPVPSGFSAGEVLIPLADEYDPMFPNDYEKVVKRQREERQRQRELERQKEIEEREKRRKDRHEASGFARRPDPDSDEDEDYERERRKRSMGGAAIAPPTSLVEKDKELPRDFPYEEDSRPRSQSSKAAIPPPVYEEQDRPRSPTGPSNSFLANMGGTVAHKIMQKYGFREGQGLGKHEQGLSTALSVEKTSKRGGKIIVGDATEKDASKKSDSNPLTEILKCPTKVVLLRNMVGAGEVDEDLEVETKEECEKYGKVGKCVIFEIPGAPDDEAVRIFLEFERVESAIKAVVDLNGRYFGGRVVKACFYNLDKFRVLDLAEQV", "experiment": "Inhibition of His-tagged SPF45-UHM (unknown origin) (301 to 401 residues) expressed in Escherichia coli BL21 (DE3) cells by using biotinylated-RKSRWDETP as substrate preincubated for 30 mins followed by substrate addition and measured after 1 hr by AlphaScreen assay"}, "[3]": {"experiment": "Inhibition of N-terminal His-tagged U2AF35-UHM (unknown origin) expressed in Escherichia coli Rosetta cells (DE3) incubated for 1 hr by HTRF method", "parameters": "species or system Homo sapiens"}}}
{"smiles": "O=C(Nc1cc(C(F)(F)F)ccc1N1CCCCC1)c1ccncc1", "values": [{"measurement": "IC50", "setting": "[1]", "value": 0.96, "unit": "µM"}]}
{"smiles": "COc1cc2c(cc1OC)N(CCCN1CCN(CCO)CC1)c1cc(Cl)ccc1S2", "values": [{"measurement": "IC50", "setting": "[2]", "value": 9.2, "unit": "µM"}, {"measurement": "IC50", "setting": "Splicing factor 45", "value": 10.4, "unit": "µM"}]}
{"smiles": "CC(CCc1c[nH]c2ccccc12)N1C[C@H]2CC[C@@H](C1)C2N", "note": "(some centres undefined)", "values": [{"measurement": "IC50", "setting": "[3]", "value": 74.9, "unit": "µM"}]}
